BindingDB's records for doi:10.1021/jm970499g (Novartis Institute For Medical Sciences, 1998)
pIC50, pKi: −log10 of the molar value.

molecular target: Substance-P receptor (rabbit); test: In vitro binding affinity towards Tachykinin receptor 1 to displace [3H][Sar9Met(O2)11]-SP (1 nM) binding to rabbit whole brain membranes

Row | SMILES | pIC50
1 | O=C(NC(c1ccccc1)c1ccccc1)[C@@H]1CCCN1C(=S)NCc1ccccc1 [(S)-1-Benzylthiocarbamoyl-pyrrolidine-2-carboxylic acid benzhydryl-amide] | < 5.30
2 | COc1ccccc1COC(=O)N1CCC[C@H]1C(=O)NC(c1ccccc1)c1ccccc1 [(S)-2-(Benzhydryl-carbamoyl)-pyrrolidine-1-carboxylic acid 2-methoxy-benzyl ester] | < 4.30
3 | COc1ccccc1CNC(=S)N1CCC[C@H]1C(=O)N(Cc1ccccc1)Cc1ccccc1 [(S)-1-(2-Methoxy-benzylthiocarbamoyl)-pyrrolidine-2-carboxylic acid dibenzylamide] | < 4.30
4 | COc1ccccc1CNC(=NC#N)N1CCC[C@H]1C(=O)NC(c1ccccc1)c1ccccc1 [1-[N-(2-Methoxy-benzyl)-N'-cyano-carbamimidoyl]-pyrrolidine-2-carboxylic acid benzhydryl-amide] | < 4.30

More lines, now with the values ahead:

Row | pIC50 | SMILES
5 | < 5.30 | COc1ccccc1CNC(=S)N1CCC[C@@H]1C(=O)NC(c1ccccc1)c1ccccc1 [(R)-1-(2-Methoxy-benzylthiocarbamoyl)-pyrrolidine-2-carboxylic acid benzhydryl-amide]
6 | < 5.30 | COc1ccccc1CNC(=S)N1CCC[C@H]1C(=O)NCC(c1ccccc1)c1ccccc1 [(S)-1-(2-Methoxy-benzylthiocarbamoyl)-pyrrolidine-2-carboxylic acid (2,2-diphenyl-ethyl)-amide]
7 | < 4.30 | Nc1ccccc1CNC(=S)N1CCC[C@H]1C(=O)NC(c1ccccc1)c1ccccc1 [(S)-1-(2-Amino-benzylthiocarbamoyl)-pyrrolidine-2-carboxylic acid benzhydryl-amide]

molecular target: Substance-P receptor (rabbit); test: as above; remark: another data set of the same source

Row | SMILES | pKi
8 | COc1ccccc1CNC(=S)N1CCC[C@H]1C(=O)N[C@@H](Cc1ccccc1)C(=O)N(C)Cc1ccccc1 | 6.59
9 | COc1ccccc1CNC(=S)N1CCC[C@H]1C(=O)N[C@H](Cc1ccccc1)C(=O)N(C)Cc1ccccc1 | 5.89

Other lines, results leading:

Row | pKi | SMILES
10 | 6.48 | COc1ccccc1CNC(=S)N1CCC[C@H]1C(=O)NC(c1ccccc1)c1ccccc1 [(S)-1-(2-Methoxy-benzylthiocarbamoyl)-pyrrolidine-2-carboxylic acid benzhydryl-amide]
11 | 6.77 | O=C(NC(c1ccccc1)c1ccccc1)[C@@H]1CCCN1C(=S)NCc1ccccc1Br [(S)-1-(2-Bromo-benzylthiocarbamoyl)-pyrrolidine-2-carboxylic acid benzhydryl-amide]
12 | 5.90 | O=C(NC(c1ccccc1)c1ccccc1)[C@@H]1CCCN1C(=S)NCc1ccccc1F [(S)-1-(2-Fluoro-benzylthiocarbamoyl)-pyrrolidine-2-carboxylic acid benzhydryl-amide]
13 | 6.77 | O=C(NC(c1ccccc1)c1ccccc1)[C@@H]1CCCN1C(=S)NCc1ccccc1Cl [(S)-1-(2-Chloro-benzylthiocarbamoyl)-pyrrolidine-2-carboxylic acid benzhydryl-amide]
